Laboratory results reported in patent US20250352654A1, “PHARMACEUTICAL AGENT CONJUGATES TO MODULATE MACROPHAGE AND INFLAMMATORY FUNCTIONS AND USES THEREOF” (REGENTS OF THE UNIVERSITY OF MINNESOTA, priority 2022, published 2025).
Bridge positions count the residues as written; N and C are the ends. Peptide text beside a SMILES is read from it. * marks the point of attachment. 5FAM = O=C1OC2(c3ccc(O)cc3Oc3cc(O)ccc32)c2ccc(C(=O)*)cc21; Ahx = NCCCCCC(=O)O

Legend:
[1] = system: inflamed synovium of the arthritic joints; assay: FAM-CRV homing in CIA mice (IHC/IF); format: in vivo, mouse; conditions: i.v., 1 h, IHC
Protocol: FIGS. 7B-7D illustrates In vivo CRV peptide distribution in arthritic mouse models. (B) Scheme of synthesis of 64Cu-DOTA-CRV. (C) Representative immunohistochemistry (IHC) images of peptide accumulation in the tissues of collagen-induced-arthritis (CIA) mice with anti-FITC antibody for FAM-labeled CRV and FAM-GGS, upon intravenous injection for 1 h, respectively. Scale bars: 100 μm. (D) Representative IHC images of CRV-peptide and a control peptide (GGS) accumulation in the ankle joints of K/B×N serum-transfer arthritic mice at 1 h post intravenous injection as detected by FAM signals with anti-FITC antibody. Scale bar: 200 μm for 10× magnification; 100 μm for 20× magnification. All the animal experiments were performed in 3 mice per group. DOTA, 1,4,7,10-tetraazacyclododocane tetraacetic acid; FAM, carboxyfluorescein; FITC, fluorescein isothiocyanate.
FIG. 8A-8G CRV targets the inflamed synovium of the arthritic joints. (A) Scheme of the establishment of collagen-induced arthritis (CIA) model. (B) In vivo PET/CT images of 64Cu-DOTA and 64Cu-DOTA-CRV accumulation at the joints of mice with CIA. […] (C) Quantification of 64Cu-DOTA or 64Cu-DOTA-CRV uptake at the knees and ankles by analyzing PET data of the region of interest (ROI). […] (E) Representative IHC images of CRV-peptide accumulation in the knee joint as detected by FAM signals with anti-FITC antibody. […]

[2] = Long-term toxicity of DEX conjugates in healthy mice; format: in vivo, mouse; conditions: 2 mg kg-1 DEX equivalent, daily i.v. for 2 weeks
Protocol: (§1) (A) Quantification of immunofluorescent signals (Top) and representative immunofluorescent images (bottom) of TUNEL-positive cells showing apoptotic cells in tissues of mice receiving short-term treatments. (B-C) Plasma levels of liver enzymes alanine transaminase (ALT) and (F) aspartate transaminase (AST). […] Thymus and spleen weight in mice receiving long-term treatments.
(§2) The TUNEL staining was performed using an In Situ Cell Death Detection Kit (Roche Diagnostics GmbH, Mannheim, Germany). The paraffin sections were stained with TUNEL reaction mixture for 1 h at 37° C. followed by Hoechst staining for nucleus. The images were captured by using fluorescence microscopy EVOS M5000 and the fluorescence intensity of TUNEL positive cells was evaluated by ImageJ software for semi-quantification.
(§3) The aminotransferase quantification was performed to determine toxicity effect of different formulations of PSL on the liver. Blood samples were collected by cardiac puncture after the treatment. The levels of aspartate aminotransferase (AST) and alanine aminotransferase (ALT) in plasma were measured using assay kits from Stanbio (Boerne, TX).
(§4) Additionally, we examined the commonly seen systemic side effects including the reduced thymus and spleen weight due to increased apoptosis after a short-term low dose and a long-term glucocorticoid usage.

[3] = In vivo pharmacokinetics of DEX conjugates; conditions: male, DBA/1J, mouse, plasma, iv, 1 mg kg^-1 (DEX equivalent); healthy mice; mean ± SD (n = 3)
Protocol: All the animal experiments were performed on 3 mice per group. The data are presented as the mean±standard deviation (SD). […] All the animal experiments were performed on 3 mice per group. The data are presented as the mean±standard deviation (SD). Statistical significance was calculated using Student's t test. *P<0.05, **P<0.01 between groups. […] ND, not determined.
HPLC-MS/MS analysis was performed using the chromatographic system consisting of UltiMate 3000 RSLCnano System (Thermo Fisher Scientific) and a ZORBAX C18 column (5 μm, 150 mm 0.5 mm, Agilent, Santa Clara, CA). The mobile phase was a mixture of H2O/acetonitrile with a gradient elution (from 90:10 to 10:90 and return to 90:10, v/v) at a flow rate of 15 μl/min. The eluent was introduced directly into the electrospray source of a tandem quadrupole mass spectrometer (TSQ VANTAGE, Thermo Fisher Scientific) that was operated in the positive mode. The spray voltage was set at 3000 V. The compounds were analyzed by multiple reaction monitoring (MRM) of the transitions of m/z (ESI+) 361.24→147.06 for PSL.
Healthy DBA/1J male mice at age of 8-9 weeks were deprived of food overnight with free access to water. […] Approximately 20 IL of blood was collected via facial vein at 5, 15, 30, 60 min and, 2, 6, 12, 24, and 48 h, and plasma were obtained by centrifugation at 500×g for 10 min. […]

[4] = DEX-PEG conjugations with different PEG lengths in obese mice with ALI; format: in vivo, mouse; conditions: 0.1 mg/kg DEX equivalent i.v. every other day for 3 weeks
Protocol: (A) Body weight of mice in each treatment group. (B) Blood glucose of mice during the ITT experiment. Mice were fasted for 6 hours, and […] of insulin was administered via intraperitoneal (i.p.) injection. The blood glucose levels were measured using Clarity BG1000 Blood Glucose Meter Strips at 0, 15, 30, 60, 90, and 120 minutes after the injection. (C) Thymus weight of mice in each group at the end of the study. Triglycerides (D), total cholesterol (E) and non-HDL cholesterol (F) in mice plasma were quantified by LiquiColor® Test (Enzymatic) Kit. Error bars indicate S.E.M., n=4. *p<0.05 and **p<0.01 (Student's t-test).
Liver was collected, fixed and sectioned. H&E staining was carried out according to the standard protocol. Scale bar, […] for all images.
Male C57 mice were subjected to high-fat diet feeding for 8 weeks to induce obesity. An acute lung injury (ALI) model was established in the obesity mice by administering 30 μg of LPS intratracheally per mouse.
In addition, lean mice and obese mice without ALI were included in the study as controls and received no treatment. Body weight of the mice was monitored every other day during the study. One day prior to sacrificing the mice, an insulin tolerance test (ITT) was conducted. Blood and major organs were collected at the end of the study, and plasma triglycerides, total and non-HDL cholesterol were quantified. The organs were weighed and sectioned for H&E staining.

[5] = Short-term side effects of DEX conjugates in CIA mice; format: in vivo, mouse; conditions: 0.01 mg kg-1 DEX equivalent i.v. every two days for one week
Protocol: as §1, §2, §3, §4

| Structure (SMILES) | peptide accumulation in other organs [1] | apoptosis in thymus and spleen (TUNEL), long-term [2] | thymus and spleen weight, long-term [2] | AUC(0-t) [3] | Thymus weight [4] | body weights or blood glucose [4] | triglycerides in the plasma [4] | apoptosis in tissues (TUNEL), short-term [5] |
| --- | --- | --- | --- | --- | --- | --- | --- | --- |
| CC(C)C[C@@H]1NC(=O)[C@H](C(C)C)NC(=O)[C@H](CCCNC(=N)N)NC(=O)[C@@H](NC(=O)CCCCCNC(=O)c2ccc3c(c2)C(=O)OC32c3ccc(O)cc3Oc3cc(O)ccc32)CSSC[C@@H](C(=O)O)NC(=O)[C@H](CO)NC(=O)CNC(=O)[C@H](CO)NC(=O)[C@H](CCCNC(=N)N)NC1=O [CRV] ({5FAM-Ahx}-CRVLRSGSC-OH; disulfide 1-9) | some accumulation of CRV in the liver and kidney, while no or much less in other organs | – | – | – | – | – | – | – |
| C[C@@H]1C[C@H]2[C@@H]3CCC4=CC(=O)C=C[C@]4(C)[C@@]3(F)[C@@H](O)C[C@]2(C)[C@@]1(O)C(=O)CO [DEX, dexamethasone] | – | increased apoptosis in thymus and spleen | most significant weight loss of thymus and spleen | 23.2 ± 5.14 ng·h/mL | reduces thymus weight | no change | elevates the blood triglyceride | increases the level of apoptosis mainly in the thymus |
